Measurements as given in the supplement of paper PMC11061612.

Tests used:
Paclitaxel = compound: CC(=O)O[C@H]1C(=O)[C@@]2(C)[C@H]([C@H](OC(=O)c3ccccc3)[C@]3(O)C[C@H](OC(=O)[C@H](O)[C@@H](NC(=O)c4ccccc4)c4ccccc4)C(C)=C1C3(C)C)[C@]1(OC(C)=O)CO[C@@H]1C[C@@H]2O [Paclitaxel]; details: max 3 µM
Summary of the method: (§1)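 Plates with 1536 wells received cancer cell lines in 7.5 μl of DMEM/F12 or RPMI containing 10% FBS. After 24 hours at 37°C and 5% CO2, cells were dosed for 72 hours with final DMSO typically 0.2%, and viability was read by CellTiter-Glo 2.0 luminescence scaled between blank-well and DMSO-well means. The single-agent IC50 was taken from a logistic fit of the dose responses made with a non-linear mixed effects model, that logistic curve having two parameters.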

Doxorubicin = compound: COc1cccc2c1C(=O)c1c(O)c3c(c(O)c1C2=O)C[C@@](O)(C(=O)CO)C[C@@H]3O[C@H]1C[C@H](N)[C@H](O)[C@H](C)O1 [Doxorubicin]; details: max 1 µM
Summary of the method: as §1

AZD5153 = compound: COc1nnc2ccc(N3CCC(c4ccc(OCCN5CCN(C)C(=O)[C@H]5C)cc4)CC3)nn12 [AZD5153]; details: max 1 µM
Summary of the method: as §1

AZD8186 = compound: C[C@@H](Nc1cc(F)cc(F)c1)c1cc(C(=O)N(C)C)cc2c(=O)cc(N3CCOCC3)oc12 [AZD8186]; details: max 10 µM
Summary of the method: as §1

SRA737 = compound: N#Cc1cnc(Nc2cc(NC[C@H]3CNCCO3)c(C(F)(F)F)cn2)cn1 [SRA737]; details: max 10 µM
Summary of the method: as §1

Prexasertib = compound: COc1cccc(OCCCN)c1-c1cc(Nc2cnc(C#N)cn2)n[nH]1 [Prexasertib]; details: max 1 µM
Summary of the method: as §1

Venetoclax = compound: CC1(C)CCC(CN2CCN(c3ccc(C(=O)NS(=O)(=O)c4ccc(NCC5CCOCC5)c([N+](=O)[O-])c4)c(Oc4cnc5[nH]ccc5c4)c3)CC2)=C(c2ccc(Cl)cc2)C1 [Venetoclax]; details: max 1 µM
Summary of the method: as §1

Gemcitabine = compound: Nc1ccn([C@@H]2O[C@H](CO)[C@@H](O)C2(F)F)c(=O)n1 [Gemcitabine]; details: max 0.3 µM
Summary of the method: as §1

Dasatinib = compound: CC1=C(C(=CC=C1)Cl)NC(=O)C2=CN=C(S2)NC3=CC(=NC(=N3)C)N4CCN(CC4)CCO [Dasatinib]; details: max 2 µM
Summary of the method: as §1

Savolitinib = compound: C[C@@H](c1ccc2nccn2c1)n1nnc2ncc(-c3cnn(C)c3)nc21 [Savolitinib]; details: max 1 µM
Summary of the method: as §1

Crizotinib = compound: C[C@@H](Oc1cc(-c2cnn(C3CCNCC3)c2)cnc1N)c1c(Cl)ccc(F)c1Cl [Crizotinib]; details: max 10 µM
Summary of the method: as §1

Taselisib = compound: Cc1nc(-c2cn3c(n2)-c2ccc(-c4cnn(C(C)(C)C(N)=O)c4)cc2OCC3)n(C(C)C)n1 [Taselisib]; details: max 10 µM
Summary of the method: as §1

MK-2206 = compound: NC1(c2ccc(-c3nc4ccn5c(=O)[nH]nc5c4cc3-c3ccccc3)cc2)CCC1 [MK-2206]; details: max 10 µM
Summary of the method: as §1

AZD4320 = compound: CN(CC[C@H](CSC1=CC=CC=C1)NC2=C(C=C(C=C2)S(=O)(=O)NC(=O)C3=CC=C(C=C3)N4CCC(CC4)[C@H](C5=CC=CC=C5C6=CC=C(C=C6)Cl)O)S(=O)(=O)C(F)(F)F)CCO [AZD4320]; details: max 1 µM
Summary of the method: as §1

Trametinib = compound: CC(=O)Nc1cccc(-n2c(=O)n(C3CC3)c(=O)c3c(Nc4ccc(I)cc4F)n(C)c(=O)c(C)c32)c1 [Trametinib]; details: max 1 µM
Summary of the method: as §1

Alisertib = compound: COc1cc(Nc2ncc3c(n2)-c2ccc(Cl)cc2C(c2c(F)cccc2OC)=NC3)ccc1C(=O)O [Alisertib]; details: max 10 µM
Summary of the method: as §1

Olaparib = compound: O=C(c1cc(Cc2n[nH]c(=O)c3ccccc23)ccc1F)N1CCN(C(=O)C2CC2)CC1 [Olaparib]; details: max 10 µM
Summary of the method: as §1

AZD0156 = compound: CN(C)CCCOc1ccc(-c2ccc3ncc4c(c3c2)n(C2CCOCC2)c(=O)n4C)cn1 [AZD0156]; details: max 3 µM
Summary of the method: as §1

Selumetinib = compound: Cn1cnc2c(F)c(Nc3ccc(Br)cc3Cl)c(C(=O)NOCCO)cc21 [Selumetinib]; details: max 10 µM
Summary of the method: as §1

Palbociclib = compound: CC(=O)c1c(C)c2cnc(Nc3ccc(N4CCNCC4)cn3)nc2n(C2CCCC2)c1=O [Palbociclib]; details: max 10 µM
Summary of the method: as §1

AZD5363 = compound: C1CN(CCC1(C(=O)N[C@@H](CCO)C2=CC=C(C=C2)Cl)N)C3=NC=NC4=C3C=CN4 [AZD5363]; details: max 10 µM
Summary of the method: as §1

AZD5991 = compound: Cc1c2c(nn1C)CSCc1cc(n(C)n1)CSc1cc(c3ccccc3c1)OCCCc1c(C(=O)O)n(C)c3c-2c(Cl)ccc13 [AZD5991]; details: max 1 µM
Summary of the method: as §1

Gefitinib = compound: COc1cc2ncnc(Nc3ccc(F)c(Cl)c3)c2cc1OCCCN1CCOCC1 [Gefitinib]; details: max 10 µM
Summary of the method: as §1

Etoposide = compound: COc1cc([C@@H]2c3cc4c(cc3[C@@H](O[C@@H]3O[C@@H]5CO[C@@H](C)O[C@H]5[C@H](O)[C@H]3O)[C@H]3COC(=O)[C@H]23)OCO4)cc(OC)c1O [Etoposide]; details: max 10 µM
Summary of the method: as §1

AZD7648 = compound: Cc1cc2ncnn2cc1Nc1ncc2c(n1)n(C1CCOCC1)c(=O)n2C [AZD7648]; details: max 10 µM
Summary of the method: as §1

5-Fluorouracil = compound: O=c1[nH]cc(F)c(=O)[nH]1 [5-Fluorouracil]; details: max 20 µM
Summary of the method: as §1

SG3199 = compound: CC1=CN2[C@@H](C1)C=NC3=CC(=C(C=C3C2=O)OC)OCCCCCOC4=C(C=C5C(=C4)N=C[C@@H]6CC(=CN6C5=O)C)OC [SG3199]; details: max 0.001 µM
Summary of the method: as §1

Lapatinib = compound: CS(=O)(=O)CCNCc1ccc(-c2ccc3ncnc(Nc4ccc(OCc5cccc(F)c5)c(Cl)c4)c3c2)o1 [Lapatinib]; details: max 10 µM
Summary of the method: as §1

AZD2811 = compound: CCN(CCO)CCCOc1ccc2c(Nc3cc(CC(=O)Nc4cccc(F)c4)[nH]n3)ncnc2c1 [AZD2811]; details: max 1 µM
Summary of the method: as §1

[1] = compound: O=C(Nc1ccc2[nH]nc(-c3ccncc3)c2c1)[C@@H]1CCN(CC(=O)N2CCN(c3ccc(-c4ncccn4)cc3)CC2)C1; details: max 5 µM
Summary of the method: as §1

AZD6738 = compound: C[C@@H]1COCCN1C2=NC(=NC(=C2)C3(CC3)[S@](=N)(=O)C)C4=C5C=CNC5=NC=C4 [AZD6738]; details: max 10 µM
Summary of the method: as §1

Carboplatin = compound: C1CC(C1)(C(=O)[O-])C(=O)[O-].N.N.[Pt+2] [Carboplatin]; details: max 10 µM
Summary of the method: as §1

AZD1775 = compound: C=CCn1c(=O)c2cnc(Nc3ccc(N4CCN(C)CC4)cc3)nc2n1-c1cccc(C(C)(C)O)n1 [AZD1775]; details: max 3 µM
Summary of the method: as §1

AZD1390 = compound: CC(C)n1c(=O)n(C)c2cnc3cc(F)c(-c4ccc(OCCCN5CCCCC5)nc4)cc3c21 [AZD1390]; details: max 0.3 µM
Summary of the method: as §1

SN-38 = compound: CCc1c2c(nc3ccc(O)cc13)-c1cc3c(c(=O)n1C2)COC(=O)[C@]3(O)CC [SN-38]; details: max 0.3 µM
Summary of the method: as §1

Cell Line | IC50, cell viability 72 h (Paclitaxel) [nM] | IC50, cell viability 72 h (Doxorubicin) [nM] | IC50, cell viability 72 h (AZD5153) [nM] | IC50, cell viability 72 h (AZD8186) [nM] | IC50, cell viability 72 h (SRA737) [nM] | IC50, cell viability 72 h (Prexasertib) [nM] | IC50, cell viability 72 h (Venetoclax) [nM] | IC50, cell viability 72 h (Gemcitabine) [nM] | IC50, cell viability 72 h (Dasatinib) [nM] | IC50, cell viability 72 h (Savolitinib) [nM] | IC50, cell viability 72 h (Crizotinib) [nM] | IC50, cell viability 72 h (Taselisib) [nM] | IC50, cell viability 72 h (MK-2206) [nM] | IC50, cell viability 72 h (AZD4320) [nM] | IC50, cell viability 72 h (Trametinib) [nM] | IC50, cell viability 72 h (Alisertib) [nM] | IC50, cell viability 72 h (Olaparib) [nM] | IC50, cell viability 72 h (AZD0156) [nM] | IC50, cell viability 72 h (Selumetinib) [nM] | IC50, cell viability 72 h (Palbociclib) [nM] | IC50, cell viability 72 h (AZD5363) [nM] | IC50, cell viability 72 h (AZD5991) [nM] | IC50, cell viability 72 h (Gefitinib) [nM] | IC50, cell viability 72 h (Etoposide) [nM] | IC50, cell viability 72 h (AZD7648) [nM] | IC50, cell viability 72 h (5-Fluorouracil) [nM] | IC50, cell viability 72 h (SG3199) [nM] | IC50, cell viability 72 h (Lapatinib) [nM] | IC50, cell viability 72 h (AZD2811) [nM] | IC50, cell viability 72 h [1] [nM] | IC50, cell viability 72 h (AZD6738) [nM] | IC50, cell viability 72 h (Carboplatin) [nM] | IC50, cell viability 72 h (AZD1775) [nM] | IC50, cell viability 72 h (AZD1390) [nM] | IC50, cell viability 72 h (SN-38) [nM]
AMO-1 (Plasma Cell Myeloma) | < 3 | 169 | 36.6 | > 10000 | 2010 | 8.82 | > 1000 | 15.3 | > 2000 | > 1000 | 3000 | 3410 | 1150 | > 1000 | > 1000 | 192 | > 10000 | > 3000 | > 10000 | > 10000 | 6030 | 18.6 | > 10000 | 1680 | > 10000 | > 20000 | > 1 | 6710 | > 1000 | > 5000 | 3180 | > 10000 | 633 | > 300 | 18.4
Hs-766T (Pancreatic Carcinoma) | > 3000 | > 1000 | > 1000 | > 10000 | > 10000 | 163 | > 1000 | > 300 | > 2000 | > 1000 | > 10000 | > 10000 | > 10000 | > 1000 | 113 | > 10000 | > 10000 | > 3000 | 5430 | > 10000 | > 10000 | > 1000 | > 10000 | > 10000 | > 10000 | > 20000 | > 1 | > 10000 | > 1000 | > 5000 | > 10000 | > 10000 | > 3000 | > 300 | > 300
TK10 (Kidney Carcinoma) | 715 | > 1000 | 903 | > 10000 | > 10000 | 159 | > 1000 | > 300 | 437 | > 1000 | > 10000 | 5340 | > 10000 | > 1000 | > 1000 | > 10000 | > 10000 | > 3000 | > 10000 | > 10000 | > 10000 | > 1000 | 9990 | > 10000 | > 10000 | > 20000 | > 1 | 8300 | > 1000 | > 5000 | > 10000 | > 10000 | 2870 | > 300 | > 300
